Source: ChEMBL document CHEMBL1130332, “Synthesis of (+)- and ()-2-methylarachidonyl-2-fluoroethylamide (O-689)” (Bioorg Med Chem Lett, 1997)
Several values for one entry are separate records, joined by “and”; a condition that tells them apart may be missing. Equal entries are not always repeated.

Columns and labels:
Mus musculus [1] = test: Tested for hypothermia in mouse upon intravenous administration; type: functional
Cannabinoid receptor 1 [2] = molecular target: T1, Cannabinoid receptor 1 (Rattus norvegicus, UniProt P20272); test: Compound was evaluated for binding affinity towards cannabinoid receptor in rat brain P2 membrane; type: cell membranes
T1 sequence (P20272 whole entry): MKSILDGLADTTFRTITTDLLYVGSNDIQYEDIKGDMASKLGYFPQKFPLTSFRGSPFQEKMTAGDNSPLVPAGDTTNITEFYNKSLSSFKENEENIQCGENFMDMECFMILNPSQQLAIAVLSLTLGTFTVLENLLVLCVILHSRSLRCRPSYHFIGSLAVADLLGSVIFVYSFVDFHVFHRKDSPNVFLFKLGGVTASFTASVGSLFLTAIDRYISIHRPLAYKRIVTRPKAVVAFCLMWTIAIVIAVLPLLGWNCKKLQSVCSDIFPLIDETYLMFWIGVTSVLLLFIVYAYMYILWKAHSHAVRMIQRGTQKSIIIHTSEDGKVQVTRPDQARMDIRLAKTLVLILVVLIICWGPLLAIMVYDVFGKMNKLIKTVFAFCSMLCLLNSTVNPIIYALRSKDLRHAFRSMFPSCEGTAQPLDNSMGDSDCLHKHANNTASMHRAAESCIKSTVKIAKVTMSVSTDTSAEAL

Mus musculus [3] = test: Tested for ring immobility in mouse upon intravenous administration; type: functional
Cannabinoid receptor 1 [4] = molecular target: T1, Cannabinoid receptor 1; test: Compound was evaluated for binding affinity to displace [3H]CP-55940 radioligand from cannabinoid receptor in rat brain P2 membrane; type: cell membranes
Mus musculus [5] = test: Tested for in vivo inhibition of locomotor activity in mouse upon intravenous administration; type: functional
Mus musculus [6] = test: Tested for in vivo […] by tail-flick method in mouse upon intravenous administration; type: functional

Structure (SMILES): CCCCC/C=C\C/C=C\C/C=C\C/C=C\CCC(C)C(=O)NCCF (racemic)
- ED50 (Mus musculus [1]): 2.73 mg/kg
- Ki (Cannabinoid receptor 1 [2]): 5.7 nM
- ED50 (Mus musculus [3]): 1.6 mg/kg
- Ki (Cannabinoid receptor 1 [4]): 21.2 nM
- ED50 (Mus musculus [5]): 1.85 mg/kg and 4.78 mg/kg

Structure (SMILES): CCCCC/C=C\C/C=C\C/C=C\C/C=C\CCC(C)C(=O)NCCF (single isomer, unassigned; (-))
- ED50 (Mus musculus [1]): 10.1 mg/kg
- ED50 (Mus musculus [3]): 2.93 mg/kg
- Ki (Cannabinoid receptor 1 [4]): 15.3 nM
- ED50 (Mus musculus [5]): 2.3 mg/kg
- ED50 (Mus musculus [6]): 1.34 mg/kg

Structure (SMILES): CCCCC/C=C\C/C=C\C/C=C\C/C=C\CCC(C)C(=O)NCCF (stereo in doubt; (+)-4a)
- ED50 (Mus musculus [1]): 2.49 mg/kg
- ED50 (Mus musculus [3]): 5.27 mg/kg
- Ki (Cannabinoid receptor 1 [4]): 22.4 nM
- ED50 (Mus musculus [5]): 10.2 mg/kg
- ED50 (Mus musculus [6]): 2.56 mg/kg
